From publication PMC8107043 (Bioorganic & Medicinal Chemistry Letters, 2021)

Assays:
SARS-CoV-2 PLpro = SARS-CoV-2 PLpro (Severe acute respiratory syndrome coronavirus 2, UniProt P0DTD1); test: Papain-like protease; type: biochemical; settings: read-out: Percent inhibition against PLpro, 100 µg/mL, mean ± SEM of 3 replicas
[1] = tested on: normal human fibroblast cells (HDF); test: Cell viability MTT assay; type: cell-based; settings: in words
SARS-CoV-2 = settings: in words; cited from earlier work
SARS-CoV-2 M^pro = SARS-CoV-2 M^pro (Severe acute respiratory syndrome coronavirus 2, UniProt P0DTD1); type: biochemical; settings: read-out: IC50 against M^pro; dose-response 25-200 µg/mL

Compound `O=C(CSc1nnc2c(n1)[nH]c1ccccc12)Nc1cccc(S(=O)(=O)N2CCOCC2)c1` [Compound 8] has an inhibition at 100 µg/mL (SARS-CoV-2 PLpro) of at most 40%.

Work on `COc1cc(CC(C)NCc2cc(NC(=O)c3ccccn3)cc(C(=O)N(C)C)c2)ccc1O` (stereo not drawn) [Compound 12] yielded an inhibition at 100 µg/mL (SARS-CoV-2 PLpro) of at most 40%.

With `N=C(N/N=C/c1ccccc1O)c1nonc1NCNc1nonc1C(=N)N/N=C/c1ccccc1O` [Compound 13] the “toxicity on mammalian cells” value [1] was “no toxicity”.

In the case of `Cc1cccc(C)c1OCC(=O)N[C@@H](Cc1ccccc1)[C@@H](O)C[C@H](Cc1ccccc1)NC(=O)[C@H](C(C)C)N1CCCNC1=O` [lopinavir], the “outcome in clinical trial as anti-SARS-CoV-2 inhibitors” value (SARS-CoV-2) is listed as “failed in the clinical trial”.

With `CCOC(=O)C(Cc1c[nH]c2ccccc12)NC(=O)CCC(=O)Nc1ccc(S(N)(=O)=O)cc1` (stereo not drawn) [Compound 2] the inhibition at 100 µg/mL (SARS-CoV-2 PLpro) was at most 40%.

`COc1ccc(/C=C\C(=O)NC(=S)Nc2ccc(S(=O)(=O)NC(N)=O)cc2)cc1OC` [Compound 9] gave an inhibition at 100 µg/mL (SARS-CoV-2 PLpro) of at most 40%.

For `CC(C)c1nc(CN(C)C(=O)N[C@H](C(=O)N[C@@H](Cc2ccccc2)C[C@H](O)[C@H](Cc2ccccc2)NC(=O)OCc2cncs2)C(C)C)cs1` [ritonavir], the “outcome in clinical trial as anti-SARS-CoV-2 inhibitors” value (SARS-CoV-2) is given as “failed in the clinical trial”.

In the case of `COc1cc(C(NC2=NC(=O)C(CC(=O)Nc3ccc(C(=O)O)cc3)S2)c2c(O)[nH]c(=O)[nH]c2=O)ccc1O` (stereo not drawn) [Compound 7], the IC50 (SARS-CoV-2 M^pro) is reported as 450 nM and the “toxicity on mammalian cells” value [1] is reported as “no toxicity”.
